According to patent US20260174910A1, “POROUS EXPANDING BIOCOMPATIBLE SCAFFOLDS” (DANMARKS TEKNISKE UNIVERSITET, priority 2022, published 2026):

Tests used:
[1] = Lipids/surfactants in ECell: solubility and expansion in PBS (images); format: physicochemical; conditions: for appearance of ECell compositions containing the lipid/surfactant: 1% w/w (RGD lipids 0.1%), with and without 2.5% CAB polymer; for ECell expansion compared to the reference: LOIB:CAB:DMSO:Surfactant 66.5:2.5:30:1, PBS, reference LOIB:CAB:DMSO 67.5:2.5:30; for ECell expansion compared to the reference / shape of the depot compared to reference: 37° C.; for shape of the depot compared to reference: ECells without CAB, LOIB:GTH:DMSO:Surfactant 69:10:20:1, PBS
Experimental: Different surfactants were formulated in expandable (w CAB, Mn 12000) vs non-expandable (w GTH) ECell formulations in a concentration of 1% w/w. […] Gel formulations containing each surfactant were prepared in 600 mg aliquots.
Duplicates consisting of 100 μL gel depots of each ECell formulation were injected into 2 mL PBS buffer. Samples were incubated at 37° C., and images of a non-expandable vs an expandable ECell containing the same surfactant side-by-side were taken at 1.5 h and 2 days and 7 days post injection to investigate and document surfactant effects on ECell expansion.

[2] = cited from earlier work
[3] = Solvent type and ECell expansion in PBS (visual inspection of images); format: physicochemical; conditions: LOIB:CAB (Mn 12000):Solvent 67.5:2.5:30, 100 μL in 2 mL PBS, 37° C., 1.5 h, 2 days, 7 days pi
Experimental: These ECells were prepared to study eventual surface and expansion effects of the specific solvent type on LOIB:CAB compositions. ECell formulations were prepared in 900 mg aliquots. 12 h stability at room temperature (RT) was investigated and documented in images. Only soluble formulations of appropriate viscosity were injected as gel depots into PBS (100 μL, for visual inspection). Duplicates consisting of 100 μL ECell depots of each clear formulation were injected into 2 mL PBS buffer for inspection. Samples were kept at 37° C., and images of each injected gel depot composition were recorded at 1.5 h and 2 days and 7 days post injection (pi) to investigate and document effects of solvent type on the depots.

[4] = In vitro release of antimicrobials from expanding ECells (RHPLC); format: physicochemical; conditions: dPBS, 37° C., FIG. 18
Experimental: Each formulation was loaded with antimicrobial in varying concentrations (see Table 1) and was injected as ≈100 μl into 4 ml Dulbecco's Phosphate-buffered Saline (dPBS), in a glass vial, and incubated at 37° C. in atmospheric air, only taken out when samples were collected and new dPBS was added. Sample collection proceeded by removing all dPBS possible with a pipette, weighing the expanding ECells, then saving 1 ml for analysis, returning the rest, and adding new dPBS until 4,000 mg of water was present.
At each chosen time point, 1 ml of the release medium was collected and RHPLC analysis was carried out. […] Solution A was an aqueous mixture of 5% v/v MeCN and 0.01% TFA. […] Rifamycin splits into several peaks over time, and the total AUC of all peaks were used for quantification and standard curve generation.

[5] = In vitro release of MMP / gp-130 inhibitors from expanding ECells (RHPLC); format: physicochemical; conditions: 5 mg/g in LOIB:CAB(12 kDa):DMSO (65:5:30), dPBS, 37° C.
Experimental: The in vitro release profile of three inhibitor compounds were elucidated from a LOIB:CAB(12 kDa):DMSO (65:5:30) formulation. […] Loading of inhibitors were done by adding the desired concentration in mg per g of expanding ECells and stirring on a magnetic stirrer at room temperature until the solution became clear.
Each compound was loaded as 5 mg/g in the expanding ECell formulation and injected in 4 ml Dulbecco's Phosphate-buffered Saline (dPBS) as ≈100 μl, in triplicates, and incubated at 37° C. At chosen time points (see FIG. 19a), all dPBS was removed by pipetting, the expanding ECells+potentially absorbed water was weighed, and its weight noted down, 1 ml dPBS was collected for release quantification, and the remaining dPBS+fresh dPBS to a total of 4 ml (4 g) was added.
Weight data was used to generate a graph of the relative expanding ratio as a function of time (FIG. 19b), and from the 1 ml collected, RHPLC analysis was carried out. […] Solution A was an aqueous mixture of 5% v/v MeCN and 0.01% TFA.

[6] = Experimental: After addition of LOIB and DMSO, each ECell formulation was sonicated at 75° C. for 2 hrs and vortexed every 30th minute.

| appearance of ECell compositions containing the lipid/surfactant [1] | ECell expansion compared to the reference [1] | expansion of the ECell by solvent, as judged by the eye [3] | Compound | also measured |
| --- | --- | --- | --- | --- |
| Homogeneous | slightly reduced | – | 1,2-Dimyristoyl-rac-glycero-3-methoxypolyethylene glycol-2000 [DMG-PEG2K] | – |
| – | – | – | CNC(=O)[C@H](Cc1ccccc1)NC(=O)[C@H](CC(C)C)[C@H](CSc1cccs1)C(=O)NO [Batimastat] | log P [2]: 3.27 |
| – | – | did not expand | OCc1ccccc1 [BnOH, Benzyl alcohol] | – |
| – | – | cause expansion of the ECell | C[S+](C)[O-] [DMSO, Dimethyl sulphoxide] | – |
| – | – | did not expand | CCO [EtOH, Ethanol] | – |
| Homogeneous | relatively similar to the reference | – | CCCCCCCCCCCC(=O)O [Lauric acid] | – |
| Homogeneous | relatively similar to the reference | – | CCCCCCCCCCCC(=O)OCC(O)CO (stereo not shown) [Monolaurin] | – |
| – | – | cause expansion of the ECell | CN1CCCC1=O [NMP, N-methyl pyrrolidone] | – |
| – | slightly reduced | – | CCCCCCCC/C=C\CCCCCCCC(=O)O [Oleic acid] | – |
| – | – | did not expand | CC1COC(=O)O1 (stereo not shown) [PC, Propylene carbonate] | – |
| – | – | – | CO[C@H]1/C=C/O[C@@]2(C)Oc3c(C)c(O)c4c(O)c(cc(O)c4c3C2=O)NC(=O)/C(C)=C\C=C\[C@H](C)[C@H](O)[C@@H](C)[C@@H](O)[C@@H](C)[C@H](OC(C)=O)[C@@H]1C [Rifamycin SV] | log P [2]: 4.17; in vitro release rate (comparison in words) [4]: relatively slower release rate |
| – | – | – | O=S(=O)(CC1CS1)c1ccc(Oc2ccccc2)cc1 (stereo not shown) [SB-3CT] | log P [2]: 2.75; cargo released in vitro after 42 days [5]: about 5% |
| – | – | – | Cellulose Acetate [Cellulose Acetate (Mn=30,000)] | solubility in LOIB:DMSO ECell [6]: insoluble |
| – | – | – | LMT-28 | log P [2]: 3.71; cargo released in vitro after 42 days [5]: 10% |
| Homogeneous | slightly reduced | – | PEG(10)-monolaurate | – |
| Homogeneous | – | – | PEG(20)-monooleyl ether | – |
| Homogeneous | slightly reduced | – | Tween 80 | shape of the depot compared to reference [1]: slight flattening of the depot compared to reference |

| Compound | appearance of ECell compositions containing the lipid/surfactant [1] | ECell expansion compared to the reference [1] | expansion of the ECell by solvent, as judged by the eye [3] | also measured |
| --- | --- | --- | --- | --- |
| CCCCOC(C)=O [BuAc, Butyl acetate] | – | – | did not expand | – |
| CC(C)CCC[C@@H](C)[C@H]1CC[C@H]2[C@@H]3CC=C4C[C@@H](OC(=O)CCC(=O)O)CC[C@]4(C)[C@H]3CC[C@]12C [CHEMS, cholesteryl hemisuccinate] | Homogeneous | relatively similar to the reference | – | shape of the depot compared to reference [1]: slight flattening of the depot compared to reference |
| CN(C)C=O [DMF, Dimethyl formamide] | – | – | cause expansion of the ECell | – |
